Experimental data from US20240366775A1, “HUMAN TRANSFERRIN RECEPTOR BINDING ANTIBODY-PEPTIDE CONJUGATE” (PEPTIDREAM INC., priority 2021, published 2024).

Molecular target: human transferrin receptor (hTfR) (Homo sapiens, UniProt P02786)
Assay: SPR measurement of peptide binding to hTfR
Conditions: measured on the naked peptide (1st to 15th amino acids, without linker) corresponding to the listed linker-attached peptide; read-out: KD value of binding to hTfR by SPR
Description: Note that ND indicates No Data (here, it means that no data was obtained).

Sequence of human transferrin receptor (hTfR) (P02786 whole entry): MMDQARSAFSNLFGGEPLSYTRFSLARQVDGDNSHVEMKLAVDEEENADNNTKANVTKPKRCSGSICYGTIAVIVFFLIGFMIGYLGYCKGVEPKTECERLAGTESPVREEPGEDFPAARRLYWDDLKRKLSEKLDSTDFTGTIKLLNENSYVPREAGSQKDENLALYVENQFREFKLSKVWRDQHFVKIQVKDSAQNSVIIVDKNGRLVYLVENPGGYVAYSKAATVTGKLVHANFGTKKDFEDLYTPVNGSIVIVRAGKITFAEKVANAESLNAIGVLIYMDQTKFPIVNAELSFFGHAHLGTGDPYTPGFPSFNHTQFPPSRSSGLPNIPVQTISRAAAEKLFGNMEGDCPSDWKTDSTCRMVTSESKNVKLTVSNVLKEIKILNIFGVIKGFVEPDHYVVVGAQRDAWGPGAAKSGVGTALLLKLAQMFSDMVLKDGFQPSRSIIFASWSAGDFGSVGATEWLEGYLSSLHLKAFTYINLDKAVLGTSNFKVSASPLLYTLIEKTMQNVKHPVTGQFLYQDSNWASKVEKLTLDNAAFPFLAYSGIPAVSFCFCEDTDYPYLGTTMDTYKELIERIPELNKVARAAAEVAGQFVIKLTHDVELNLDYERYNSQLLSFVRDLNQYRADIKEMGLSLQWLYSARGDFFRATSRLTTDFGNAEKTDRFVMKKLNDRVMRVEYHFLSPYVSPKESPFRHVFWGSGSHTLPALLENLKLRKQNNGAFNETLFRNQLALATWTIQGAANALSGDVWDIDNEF

Compound | Kd
CC[C@H](C)[C@@H]1NC(=O)[C@H](Cc2ccc(O)cc2)NC(=O)[C@H](Cc2ccc(O)cc2)NC(=O)[C@H](CC(N)=O)NC(=O)[C@H](Cc2c[nH]c3ccccc23)N(C)C(=O)[C@H](C(C)C)NC(=O)[C@H](Cc2ccccc2)NC(=O)[C@H](C(C)C)NC(=O)[C@H](C)NC(=O)CSC[C@@H](C(=O)NCC(=O)NCC(=O)N[C@@H](CCC(=O)O)C(=O)N[C@@H](CO)C(=O)N[C@@H](CCC(=O)O)C(=O)N[C@@H](CO)C(=O)N[C@@H](CCCCNC(=O)C2CCC(CN3C(=O)C=CC3=O)CC2)C(N)=O)NC(=O)[C@H](Cc2ccc(O)cc2)N(C)C(=O)[C@H](Cc2ccc(O)cc2)NC(=O)[C@H](CCCNC(=N)N)NC(=O)[C@H](CCCNC(=N)N)NC(=O)[C@H]([C@@H](C)CC)NC1=O (stereo partly shown) [894_5m_GGESES_K(Mal)] | < 1 nM
CC[C@H](C)[C@@H]1NC(=O)[C@H](Cc2ccc(O)cc2)NC(=O)[C@H](Cc2ccc(O)cc2)NC(=O)[C@H](CC(N)=O)NC(=O)[C@H](Cc2c[nH]c3ccccc23)N(C)C(=O)[C@H](C(C)C)NC(=O)[C@H](Cc2ccccc2)NC(=O)[C@H](C(C)C)NC(=O)[C@H](C)NC(=O)CSC[C@@H](C(=O)NCC(=O)NCC(=O)N[C@@H](CCCNC(=N)N)C(=O)N[C@@H](CO)C(=O)N[C@@H](CCC(=O)O)C(=O)N[C@@H](CO)C(=O)N[C@@H](CCCCNC(=O)C2CCC(CN3C(=O)C=CC3=O)CC2)C(N)=O)NC(=O)[C@H](Cc2ccc(O)cc2)N(C)C(=O)[C@H](Cc2ccc(O)cc2)NC(=O)[C@H](CCCNC(=N)N)NC(=O)[C@H](CCCNC(=N)N)NC(=O)[C@H]([C@@H](C)CC)NC1=O (stereo partly shown) [894_5m_GGRSES_K(Mal)] | < 1 nM
CC[C@H](C)[C@@H]1NC(=O)[C@H](Cc2ccc(O)cc2)NC(=O)[C@H](Cc2ccc(O)cc2)NC(=O)[C@H](CC(N)=O)NC(=O)[C@H](Cc2c[nH]c3ccccc23)N(C)C(=O)[C@H](C(C)C)NC(=O)[C@H](Cc2ccccc2)NC(=O)[C@H](C(C)C)NC(=O)[C@H](C)NC(=O)CSC[C@@H](C(=O)NCC(=O)NCC(=O)N[C@@H](CO)C(=O)NCC(=O)N[C@@H](CCC(=O)O)C(=O)N[C@@H](CO)C(=O)N[C@@H](CCCCNC(=O)C2CCC(CN3C(=O)C=CC3=O)CC2)C(N)=O)NC(=O)[C@H](Cc2ccc(O)cc2)N(C)C(=O)[C@H](Cc2ccc(O)cc2)NC(=O)[C@H](CCCNC(=N)N)NC(=O)[C@H](CCCNC(=N)N)NC(=O)[C@H]([C@@H](C)CC)NC1=O (stereo partly shown) [894_5m_GGSGES_K(Mal)] | < 1 nM
CC[C@H](C)[C@@H]1NC(=O)[C@H](Cc2ccc(O)cc2)NC(=O)[C@H](Cc2ccc(O)cc2)NC(=O)[C@H](CC(N)=O)NC(=O)[C@H](Cc2c[nH]c3ccccc23)N(C)C(=O)[C@H](C(C)C)NC(=O)[C@H](Cc2ccccc2)NC(=O)[C@H](C(C)C)NC(=O)[C@H](C)NC(=O)CSC[C@@H](C(=O)NCC(=O)N[C@@H](CO)C(=O)N[C@@H](CO)C(=O)NCC(=O)N[C@@H](CO)C(=O)N[C@@H](CO)C(=O)N[C@@H](CCCCNC(=O)C2CCC(CN3C(=O)C=CC3=O)CC2)C(N)=O)NC(=O)[C@H](Cc2ccc(O)cc2)N(C)C(=O)[C@H](Cc2ccc(O)cc2)NC(=O)[C@H](CCCNC(=N)N)NC(=O)[C@H](CCCNC(=N)N)NC(=O)[C@H]([C@@H](C)CC)NC1=O (stereo partly shown) [894_5m_GSSGSS_K(Mal)] | < 1 nM

Same assay, conditions: naked peptide (1st to 15th amino acids, without linker part) corresponding to the listed linker-attached peptide; read-out: SPR of naked peptide (KD for binding to hTfR)

Kd | Compound
< 1 nM | CC[C@H](C)[C@@H]1NC(=O)[C@H](Cc2ccc(O)cc2)NC(=O)[C@H](Cc2ccc(O)cc2)NC(=O)[C@H](CC(N)=O)NC(=O)[C@H](Cc2c[nH]c3ccccc23)N(C)C(=O)[C@H](C(C)C)NC(=O)[C@H](Cc2ccccc2)NC(=O)[C@H](C(C)C)NC(=O)[C@H](C)NC(=O)CSC[C@@H](C(=O)NCCOCCOCCOCCOCCOCCOCCOCCOCCC(=O)N[C@@H](CCCCNC(=O)C2CCC(CN3C(=O)C=CC3=O)CC2)C(N)=O)NC(=O)[C@H](Cc2ccc(O)cc2)N(C)C(=O)[C@H](Cc2ccc(O)cc2)NC(=O)[C@H](CCCNC(=N)N)NC(=O)[C@H](CCCNC(=N)N)NC(=O)[C@H]([C@@H](C)CC)NC1=O (stereo partly shown) [894_5m_PEG08_K(Mal)]
< 1 nM | CC[C@H](C)[C@@H]1NC(=O)[C@H](Cc2ccc(O)cc2)NC(=O)[C@H](Cc2ccc(O)cc2)NC(=O)[C@H](CC(N)=O)NC(=O)[C@H](Cc2c[nH]c3ccccc23)NC(=O)[C@H](C(C)C)NC(=O)[C@H](Cc2ccccc2)NC(=O)[C@H](C(C)C)NC(=O)[C@H](C)NC(=O)CSC[C@@H](C(=O)NCCOCCOCCOCCOCCC(=O)NN)NC(=O)[C@H](Cc2ccc(O)cc2)N(C)C(=O)[C@H](Cc2ccc(O)cc2)NC(=O)[C@H](CCCNC(=N)N)NC(=O)[C@H](CCCNC(=N)N)NC(=O)[C@H]([C@@H](C)CC)NC1=O [hTIR 000894_PEG4_(Hydrazide)]
< 1 nM | CC[C@H](C)[C@@H]1NC(=O)[C@H](Cc2ccc(O)cc2)NC(=O)[C@H](Cc2ccc(O)cc2)NC(=O)[C@H](CC(N)=O)NC(=O)[C@H](Cc2c[nH]c3ccccc23)NC(=O)[C@H](C(C)C)NC(=O)[C@H](Cc2ccccc2)NC(=O)[C@H](C(C)C)NC(=O)[C@H](C)NC(=O)CSC[C@@H](C(=O)NCC(=O)N[C@@H](CCC(=O)O)C(=O)NCC(=O)N[C@@H](CCC(=O)O)C(=O)NCCOCCOCCOCCOCCOCCOCCOCCOCCOCCOCCOCCOCCC(=O)NN)NC(=O)[C@H](Cc2ccc(O)cc2)N(C)C(=O)[C@H](Cc2ccc(O)cc2)NC(=O)[C@H](CCCNC(=N)N)NC(=O)[C@H](CCCNC(=N)N)NC(=O)[C@H]([C@@H](C)CC)NC1=O [hTfR_894_(GEGE)PEG12_Hydrazide]
< 1 nM | CC[C@H](C)[C@@H]1NC(=O)[C@H](Cc2ccc(O)cc2)NC(=O)[C@H](Cc2ccc(O)cc2)NC(=O)[C@H](CC(N)=O)NC(=O)[C@H](Cc2c[nH]c3ccccc23)NC(=O)[C@H](C(C)C)NC(=O)[C@H](Cc2ccccc2)NC(=O)[C@H](C(C)C)NC(=O)[C@H](C)NC(=O)CSC[C@@H](C(=O)NCCOCCOCCOCCOCCOCCOCCOCCOCCOCCOCCOCCOCCC(=O)NN)NC(=O)[C@H](Cc2ccc(O)cc2)N(C)C(=O)[C@H](Cc2ccc(O)cc2)NC(=O)[C@H](CCCNC(=N)N)NC(=O)[C@H](CCCNC(=N)N)NC(=O)[C@](C)([C@@H](C)CC)NC1=O [hTfR_000894_PEG11_(Hydrazine)]
< 1 nM | CC[C@H](C)[C@@H]1NC(=O)[C@H](Cc2ccc(O)cc2)NC(=O)[C@H](Cc2ccc(O)cc2)NC(=O)[C@H](CC(N)=O)NC(=O)[C@H](Cc2c[nH]c3ccccc23)NC(=O)[C@H](C(C)C)NC(=O)[C@H](Cc2ccccc2)NC(=O)[C@H](C(C)C)NC(=O)[C@H](C)NC(=O)CSC[C@@H](C(=O)NCCOCCOCCOCCOCCOCCOCCOCCOCCOCCOCCOCCOCCC(=O)N[C@@H](CCCCNC(=O)C2CCC(CN3C(=O)C=CC3=O)CC2)C(N)=O)NC(=O)[C@H](Cc2ccc(O)cc2)N(C)C(=O)[C@H](Cc2ccc(O)cc2)NC(=O)[C@H](CCCNC(=N)N)NC(=O)[C@H](CCCNC(=N)N)NC(=O)[C@H]([C@@H](C)CC)NC1=O (stereo partly shown) [hTfR_000894_PEG11_K (Maleimide)]

Continued, compound first:

Compound | Kd
CC[C@H](C)[C@@H]1NC(=O)[C@H](Cc2ccc(O)cc2)NC(=O)[C@H](Cc2ccc(O)cc2)NC(=O)[C@H](CC(N)=O)NC(=O)[C@H](Cc2c[nH]c3ccccc23)NC(=O)[C@H](C(C)C)NC(=O)[C@H](Cc2ccccc2)N(C)C(=O)[C@H](C(C)C)NC(=O)[C@H](C)NC(=O)CSC[C@@H](C(=O)NCC(=O)NCC(=O)NCC(=O)NCC(=O)N[C@@H](CO)C(=O)N[C@@H](CO)C(=O)N[C@@H](CCCCn2cc(CN3C(=O)C=CC3=O)nn2)C(N)=O)NC(=O)[C@H](Cc2ccc(O)cc2)N(C)C(=O)[C@H](Cc2ccc(O)cc2)NC(=O)[C@H](CCCNC(=N)N)NC(=O)[C@H](CCCCN)NC(=O)[C@H]([C@@H](C)CC)NC1=O [894_11K_3MeF_G4S2_KTrzMal] | 1 to 100 nM
CC[C@H](C)[C@@H]1NC(=O)[C@H](Cc2ccc(O)cc2)NC(=O)[C@H](Cc2ccc(O)cc2)NC(=O)[C@H](CC(N)=O)NC(=O)[C@H](Cc2c[nH]c3ccccc23)N(C)C(=O)[C@H](C(C)C)NC(=O)[C@H](Cc2ccccc2)N(C)C(=O)[C@H](C(C)C)NC(=O)[C@H](C)NC(=O)CSC[C@@H](C(=O)NCC(=O)NCC(=O)NCC(=O)NCC(=O)N[C@@H](CO)C(=O)N[C@@H](CO)C(=O)N[C@@H](CCCCn2cc(CN3C(=O)C=CC3=O)nn2)C(N)=O)NC(=O)[C@H](Cc2ccc(O)cc2)N(C)C(=O)[C@H](Cc2ccc(O)cc2)NC(=O)[C@H](CCCNC(=N)N)NC(=O)[C@H](CCCCN)NC(=O)[C@H]([C@@H](C)CC)NC1=O [894_11K_3Me_5Me_G4S2_KTrzMal] | 1 to 100 nM
CC[C@H](C)[C@@H]1NC(=O)[C@H](Cc2ccc(O)cc2)NC(=O)[C@H](Cc2ccc(O)cc2)NC(=O)[C@H](CC(N)=O)NC(=O)[C@H](Cc2c[nH]c3ccccc23)NC(=O)[C@H](C(C)C)NC(=O)[C@H](Cc2ccccc2)NC(=O)[C@H](C(C)C)NC(=O)[C@H](C)NC(=O)CSC[C@@H](C(=O)NCCOCCOCCOCCOCCOCCOCCOCCOCCOCCOCCOCCOCCOCCOCCOCCOCCOCCOCCOCCOCCOCCOCCOCCOCCOCCOCCOCCOCCOCCOCCOCCOCCOCCOCCOCCOCCC(=O)ON2C(=O)CCC2=O)NC(=O)[C@H](Cc2ccc(O)cc2)N(C)C(=O)[C@H](Cc2ccc(O)cc2)NC(=O)[C@H](CCCNC(=N)N)NC(=O)[C@H](CCCNC(=N)N)NC(=O)[C@H]([C@@H](C)CC)NC1=O [JCR_hTfR_000894_PEG36_(NHS)] | < 1 nM
CC[C@H](C)[C@@H]1NC(=O)[C@H](Cc2ccc(O)cc2)NC(=O)[C@H](Cc2ccc(O)cc2)NC(=O)[C@H](CC(N)=O)NC(=O)[C@H](Cc2c[nH]c3ccccc23)NC(=O)[C@H](C(C)C)NC(=O)[C@H](Cc2ccccc2)NC(=O)[C@H](C(C)C)NC(=O)[C@H](C)NC(=O)CSC[C@@H](C(=O)NCCOCCOCCOCCOCCOCCOCCOCCOCCOCCOCCOCCOCCOCCOCCOCCOCCOCCOCCOCCOCCOCCOCCOCCOCCOCCOCCOCCOCCOCCOCCOCCOCCOCCOCCOCCOCCC(=O)NN)NC(=O)[C@H](Cc2ccc(O)cc2)N(C)C(=O)[C@H](Cc2ccc(O)cc2)NC(=O)[C@H](CCCNC(=N)N)NC(=O)[C@H](CCCNC(=N)N)NC(=O)[C@H]([C@@H](C)CC)NC1=O [hTIR_000894_PEG36_(Hydrazine)] | < 1 nM
